Laboratory results as given in article PMC7531004, “Discovery of gramicidin A analogues with altered activities by multidimensional screening of a one-bead-one-compound library” (Nature Communications, 2020).
Where a SMILES comes first, the peptide text is derived from it. [ ]: non-standard residue; d: D form. The star is where a group is joined. NHCH2CH2OH = OCCN*; For = O=C*

Legend:
[1] = H+/Na+ transport assay of bead-derived peptides (one-point); type: biochemical; design: key: relative activity; mean of two control wells = 1.00; conditions: bead-derived peptide solution, EYPC/EYPG LUVs;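 note: relative to parent gramicidin A activity set to 1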
Procedure, shortened: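 Values are normalized fluorescence, with Triton X-100 defining 100% and untreated LUVs 0%, and the two control wells averaging 1.00. Vesicles carried 1.0 mM pyranine and included egg yolk phosphatidylglycerol. Peptides were incubated with them 30 min at room temperature.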

[2] = tested on: P388 mouse leukemia cells; conditions: 92 h
Procedure, shortened: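 First, library peptide stocks are diluted 250-fold in RPMI1640 with 10% heat-inactivated FBS. Next, they are mixed with P388 cells to give 1 × 10^4 cells/mL and incubated 92 h at 37 °C, 5% CO2. Finally, viability (%) is scored by WST-1 absorbance at 415 nm.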

[3] = tested on: Streptococcus pyogenes SSI-9; test: Antibacterial activity assay of bead-derived peptides (three concentrations); type: cell-based; design: key: +++: inhibition by the 640-fold diluted peptide solution; ++: inhibition by the 160-fold diluted solution; +: inhibition by the 40-fold diluted solution; -: no inhibition; conditions: S. pyogenes, bead-derived peptide solution, three concentrations
Procedure, shortened: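 Bead-derived library peptide stocks in DMSO were tested undiluted and after 4- and 16-fold DMSO dilution against S. pyogenes SSI-9 (2 × 10^5 CFU/well) in cation-adjusted Mueller Hinton Broth with 5% laked horse blood. After 18 h at 37 °C, wells were scored for precipitation of grown cells.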

Compound	H+/Na+ transport activity normalized against the value of 1 (1.00) [1]	cell viability/% [2] [%]	antibacterial activity [3]
CC(C)C[C@@H](NC(=O)[C@H](C)NC(=O)CNC(=O)[C@@H](NC=O)C(C)C)C(=O)N[C@@H](C)C(=O)N[C@@H](C(=O)N[C@H](C(=O)N[C@@H](C(=O)N[C@@H](Cc1c[nH]c2ccccc12)C(=O)N[C@@H](C(=O)N[C@@H](Cc1c[nH]c2ccccc12)C(=O)N[C@H](CC(C)C)C(=O)N[C@@H](Cc1c[nH]c2ccccc12)C(=O)N[C@H](CC(C)C)C(=O)N[C@@H](Cc1c[nH]c2ccccc12)C(=O)NCCO)C(C)C)[C@H](C)O)C(C)C)C(C)C [compound 9832] (For-VGA[dL]A[dV]V[dT]W[dV]W[dL]W[dL]W-NHCH2CH2OH)	1.26	100.0	-
CC(C)C[C@@H](NC(=O)[C@H](C)NC(=O)[C@H](NC(=O)[C@H](C)NC(=O)CNC(=O)[C@@H](NC=O)C(C)C)C(C)C)C(=O)N[C@H](C(=O)N[C@@H](C(=O)N[C@@H](Cc1c[nH]c2ccccc12)C(=O)N[C@H](CC(C)C)C(=O)N[C@@H](Cc1c[nH]c2ccccc12)C(=O)N[C@H](CC(C)C)C(=O)N[C@@H](Cc1c[nH]c2ccccc12)C(=O)N[C@H](CC(C)C)C(=O)N[C@@H](Cc1c[nH]c2ccccc12)C(=O)NCCO)C(C)C)C(C)C [compound 9897] (For-VGA[dV]A[dL]V[dV]W[dL]W[dL]W[dL]W-NHCH2CH2OH)	1.04	8.1	+
CC(C)C[C@@H](NC(=O)[C@H](Cc1c[nH]c2ccccc12)NC(=O)[C@H](NC(=O)[C@@H](NC(=O)[C@H](NC(=O)[C@H](C)NC(=O)[C@H](NC(=O)[C@H](C)NC(=O)CNC(=O)[C@@H](NC=O)C(C)C)C(C)C)C(C)C)C(C)C)[C@H](C)O)C(=O)N[C@@H](Cc1c[nH]c2ccccc12)C(=O)N[C@@H](C(=O)N[C@@H](Cc1c[nH]c2ccccc12)C(=O)N[C@@H](C(=O)N[C@@H](Cc1c[nH]c2ccccc12)C(=O)NCCO)C(C)C)C(C)C [compound 9910] (For-VGA[dV]A[dV]V[dT]W[dL]W[dV]W[dV]W-NHCH2CH2OH)	1.07	100.0	-
CC(C)C[C@@H](NC(=O)[C@H](C)NC(=O)CNC(=O)[C@@H](NC=O)C(C)C)C(=O)N[C@@H](C)C(=O)N[C@@H](C(=O)N[C@H](C(=O)N[C@@H](C(=O)N[C@@H](Cc1c[nH]c2ccccc12)C(=O)N[C@@H](C(=O)N[C@@H](Cc1c[nH]c2ccccc12)C(=O)N[C@@H](C(=O)N[C@@H](Cc1c[nH]c2ccccc12)C(=O)N[C@@H](C(=O)N[C@@H](Cc1c[nH]c2ccccc12)C(=O)NCCO)C(C)C)C(C)C)C(C)C)C(C)C)C(C)C)C(C)C [compound 9992] (For-VGA[dL]A[dV]V[dV]W[dV]W[dV]W[dV]W-NHCH2CH2OH)	1.23	100.0	+
CNC(=O)C[C@@H](NC(=O)[C@H](Cc1c[nH]c2ccccc12)NC(=O)[C@H](NC(=O)[C@H](Cc1c[nH]c2ccccc12)NC(=O)[C@@H](CC(C)C)NC(=O)[C@H](Cc1c[nH]c2ccccc12)NC(=O)[C@@H](CC(C)C)NC(=O)[C@@H](NC(=O)[C@@H](CC(C)C)NC(=O)[C@H](C)NC(=O)[C@@H](CC(C)C)NC(=O)[C@H](C)NC(=O)CNC(=O)[C@@H](NC=O)C(C)C)C(C)C)C(C)C)C(=O)N[C@@H](Cc1c[nH]c2ccccc12)C(=O)NCCO [compound 10008] (For-VGA[dL]A[dL]V[dL]W[dL]W[dV]W[dD](NHMe)W-NHCH2CH2OH)	1.15	100.0	-
CNC(=O)C[C@@H](NC(=O)[C@H](Cc1c[nH]c2ccccc12)NC(=O)[C@@H](CC(C)C)NC(=O)[C@H](Cc1c[nH]c2ccccc12)NC(=O)[C@H](NC(=O)[C@H](Cc1c[nH]c2ccccc12)NC(=O)[C@@H](CC(C)C)NC(=O)[C@@H](NC(=O)[C@H](NC(=O)[C@H](C)NC(=O)[C@@H](CC(C)C)NC(=O)[C@H](C)NC(=O)CNC(=O)[C@@H](NC=O)C(C)C)C(C)C)C(C)C)C(C)C)C(=O)N[C@@H](Cc1c[nH]c2ccccc12)C(=O)NCCO [compound 10043] (For-VGA[dL]A[dV]V[dL]W[dV]W[dL]W[dD](NHMe)W-NHCH2CH2OH)	1.09	56.6	-
CC(C)C[C@@H](NC(=O)[C@H](C)NC(=O)[C@H](NC(=O)[C@H](C)NC(=O)CNC(=O)[C@@H](NC=O)C(C)C)C(C)C)C(=O)N[C@H](C(=O)N[C@@H](C(=O)N[C@@H](Cc1c[nH]c2ccccc12)C(=O)N[C@H](CC(C)C)C(=O)N[C@@H](Cc1c[nH]c2ccccc12)C(=O)N[C@@H](C(=O)N[C@@H](Cc1c[nH]c2ccccc12)C(=O)N[C@H](CC(C)C)C(=O)N[C@@H](Cc1c[nH]c2ccccc12)C(=O)NCCO)C(C)C)C(C)C)C(C)C [compound 10261] (For-VGA[dV]A[dL]V[dV]W[dL]W[dV]W[dL]W-NHCH2CH2OH)	1.05	46.3	+
CC(C)[C@H](NC=O)C(=O)NCC(=O)N[C@@H](C)C(=O)N[C@@H](C(=O)N[C@@H](C)C(=O)N[C@@H](C(=O)N[C@H](C(=O)N[C@@H](C(=O)N[C@@H](Cc1c[nH]c2ccccc12)C(=O)N[C@@H](C(=O)N[C@@H](Cc1c[nH]c2ccccc12)C(=O)N[C@@H](C(=O)N[C@@H](Cc1c[nH]c2ccccc12)C(=O)N[C@@H](C(=O)N[C@@H](Cc1c[nH]c2ccccc12)C(=O)NCCO)C(C)C)C(C)C)C(C)C)C(C)C)C(C)C)C(C)C)C(C)C [compound 10276] (For-VGA[dV]A[dV]V[dV]W[dV]W[dV]W[dV]W-NHCH2CH2OH)	1.04	100.0	+
CC(C)C[C@@H](NC(=O)[C@H](C)NC(=O)CNC(=O)[C@@H](NC=O)C(C)C)C(=O)N[C@@H](C)C(=O)N[C@H](CC(C)C)C(=O)N[C@H](C(=O)N[C@H](CC(C)C)C(=O)N[C@@H](Cc1c[nH]c2ccccc12)C(=O)N[C@H](CC(C)C)C(=O)N[C@@H](Cc1c[nH]c2ccccc12)C(=O)N[C@H](CC(C)C)C(=O)N[C@@H](Cc1c[nH]c2ccccc12)C(=O)N[C@@H](C(=O)N[C@@H](Cc1c[nH]c2ccccc12)C(=O)NCCO)C(C)C)C(C)C [compound 10340] (For-VGA[dL]A[dL]V[dL]W[dL]W[dL]W[dV]W-NHCH2CH2OH)	1.00	3.4	-
CC(C)C[C@@H](NC(=O)[C@H](C)NC(=O)[C@H](NC(=O)[C@H](C)NC(=O)CNC(=O)[C@@H](NC=O)C(C)C)C(C)C)C(=O)N[C@H](C(=O)N[C@@H](C(=O)N[C@@H](Cc1c[nH]c2ccccc12)C(=O)N[C@@H](C(=O)N[C@@H](Cc1c[nH]c2ccccc12)C(=O)N[C@H](CC(C)C)C(=O)N[C@@H](Cc1c[nH]c2ccccc12)C(=O)N[C@H](CC(C)C)C(=O)N[C@@H](Cc1c[nH]c2ccccc12)C(=O)NCCO)C(C)C)[C@H](C)O)C(C)C [compound 10367] (For-VGA[dV]A[dL]V[dT]W[dV]W[dL]W[dL]W-NHCH2CH2OH)	1.00	100.0	-
CC(C)C[C@@H](NC(=O)[C@H](C)NC(=O)CNC(=O)[C@@H](NC=O)C(C)C)C(=O)N[C@@H](C)C(=O)N[C@@H](C(=O)N[C@H](C(=O)N[C@@H](C(=O)N[C@@H](Cc1c[nH]c2ccccc12)C(=O)N[C@@H](C(=O)N[C@@H](Cc1c[nH]c2ccccc12)C(=O)N[C@H](CC(C)C)C(=O)N[C@@H](Cc1c[nH]c2ccccc12)C(=O)N[C@@H](C(=O)N[C@@H](Cc1c[nH]c2ccccc12)C(=O)NCCO)C(C)C)C(C)C)C(C)C)C(C)C)[C@H](C)O [compound 10415] (For-VGA[dL]A[dT]V[dV]W[dV]W[dL]W[dV]W-NHCH2CH2OH)	1.02	100.0	-
CC(C)C[C@@H](NC(=O)[C@H](C)NC(=O)CNC(=O)[C@@H](NC=O)C(C)C)C(=O)N[C@@H](C)C(=O)N[C@H](CC(C)C)C(=O)N[C@H](C(=O)N[C@H](CC(C)C)C(=O)N[C@@H](Cc1c[nH]c2ccccc12)C(=O)N[C@@H](C(=O)N[C@@H](Cc1c[nH]c2ccccc12)C(=O)N[C@@H](C(=O)N[C@@H](Cc1c[nH]c2ccccc12)C(=O)N[C@H](CC(C)C)C(=O)N[C@@H](Cc1c[nH]c2ccccc12)C(=O)NCCO)C(C)C)[C@H](C)O)C(C)C [compound 10442] (For-VGA[dL]A[dL]V[dL]W[dT]W[dV]W[dL]W-NHCH2CH2OH)	1.15	100.0	-
CC(C)C[C@@H](NC(=O)[C@H](C)NC(=O)CNC(=O)[C@@H](NC=O)C(C)C)C(=O)N[C@@H](C)C(=O)N[C@H](CC(C)C)C(=O)N[C@H](C(=O)N[C@@H](C(=O)N[C@@H](Cc1c[nH]c2ccccc12)C(=O)N[C@@H](C(=O)N[C@@H](Cc1c[nH]c2ccccc12)C(=O)N[C@H](CC(C)C)C(=O)N[C@@H](Cc1c[nH]c2ccccc12)C(=O)N[C@@H](C(=O)N[C@@H](Cc1c[nH]c2ccccc12)C(=O)NCCO)C(C)C)C(C)C)C(C)C)C(C)C [compound 10456] (For-VGA[dL]A[dL]V[dV]W[dV]W[dL]W[dV]W-NHCH2CH2OH)	1.13	11.8	+
